The values below come from ChEMBL document CHEMBL4742385 (2019).

The target in assay [1] is Cyclin-C/Cyclin-dependent kinase 19 (Homo sapiens) (UniProt Q9BWU1+P24863). The experiment in a line: Inhibition of humanGST-tagged CDK19/Cyc C expressed in Sf21 cells at 1 uM measured after 1 hr by fluorescence plate reader relative to control.
The next assay concerns RPMI-8226. The experiment in a line: Antiproliferative activity against human RPMI-8226 assessed as inhibition of cell growth at 1 uM after 8 days measured after Celltiter-Glo assay relative to control. The note with it: Homo sapiens, RPMI-8226, 192 h, time 8 day. The format is functional. A general note: In ATP-based viability assays light output follows the ATP content of the culture.

The target in assay [2] is CDK8/Cyclin C (Homo sapiens) (UniProt P49336+P24863). Description: Inhibition of human CDK8/Cyc C expressed in Sf21 cells at 1 uM measured after 1 hr by fluorescence plate reader relative to control.

What is called inhibition is the drop in the measured response relative to a control, in per cent. Take `Cn1cc(-c2ccncc2/C=C/C(=O)Nc2ccc3ccncc3c2)cn1`: the inhibition in assay [1] and in assay [2] was 94% throughout. Moreover, the inhibition at 1 µM with RPMI-8226 was found to be 55%.
Take `Cn1cc2cc(-c3ccncc3/C=C/C(=O)Nc3ccc(CN4CCOCC4)cc3)ccc2n1`: the results for the inhibition in assay [1] and in assay [2] were 93% and 97%, respectively. The inhibition at 1 µM in the assay on RPMI-8226 was 52%.
With `Cc1cc(NC(=O)/C=C/c2cnccc2-c2cnn(C3CC3)c2)ccc1CN1CCOCC1`, the inhibition in assay [1] turned out to be 99%; in assay [2], 98%. For the same compound, the inhibition at 1 µM in the assay on RPMI-8226 stood at 62%.
For `Cn1cc(-c2ccncc2/C=C/C(=O)Nc2ccc(CN3CCOCC3)cc2F)cn1` the same measures were 97%, 99% and 56%.
For `COc1ncc(-c2ccncc2/C=C/C(=O)Nc2ccc(CN3CCOCC3)cc2)s1` the same measures were 98%, 99% and 63%.
For `Cn1cc(-c2ccncc2/C=C/C(=O)Nc2ccc(CN3CC4CC3CO4)cc2)cn1` (stereo not given) the same measures were 96%, 100% and 58%.
As for `COCCOc1ccc(NC(=O)/C=C/c2cnccc2-c2cnn(C)c2)cc1`, the inhibition in assay [1] turned out to be 97%; in assay [2], 98%. In addition, the inhibition at 1 µM with RPMI-8226 is 62%.
For `Cn1cc(-c2ccncc2/C=C/C(=O)Nc2ccc3c(c2)CCC3=O)cn1` the same measures were 87%, 92% and 54%.
For `O=C(/C=C/c1cnccc1-c1cccs1)Nc1ccc(CCc2nnco2)cc1`, the inhibition was 100% in assay [1] and 101% in assay [2]. The inhibition at 1 µM in the assay with RPMI-8226 was determined as 59%.
`O=C(/C=C/c1cnccc1-c1cnn(C2CC2)c1)Nc1ccc(CN2CC(F)C2)cc1`: the inhibition in assay [1] was 99%; in assay [2], 107%. The inhibition at 1 µM in the assay on RPMI-8226 stood at 58%.
For `Cn1cc(-c2c(F)cncc2/C=C/C(=O)Nc2ccc(CN3CCOCC3)cc2)cn1` the same measures were 100%, 100% and 67%.
As for `Cn1ccc2cc(NC(=O)/C=C/c3cnccc3-c3cnn(C4CC4)c3)ccc21`, the inhibition was determined as 97% in assay [1] and 100% in assay [2]. Also, the inhibition at 1 µM in the assay on RPMI-8226 worked out at 61%.
For `Cn1cc(-c2ccncc2/C=C/C(=O)Nc2ccc(CN3CCOCC3)cc2)cn1` the same measures were 98%, 100% and 60%.
For `Cn1cc(-c2ccncc2/C=C/C(=O)Nc2ccc(CCN3CCOCC3)cc2)cn1` the same measures were 101%, 96% and 59%.
For `Cn1cc(-c2ccncc2/C=C/C(=O)Nc2ccc(CNC3CC(F)(F)C3)cc2)cn1` the same measures were 97%, 96% and 63%.
With `Cn1cc(-c2ccncc2/C=C/C(=O)Nc2ccc3c(c2)CCCC3=O)cn1`, the values for the inhibition in assay [1] and in assay [2] were 92% and 96%, respectively. Further, the inhibition at 1 µM in the assay on RPMI-8226 came out at 56%.
For `Cn1cc(-c2ccncc2/C=C/C(=O)Nc2cccc(-c3cccnc3)c2)cn1` the same measures were 78%, 84% and 58%.
For `O=C(/C=C/c1cnccc1-c1cnn(C2CC2)c1)Nc1ccc2c(c1)CCN(CC(F)(F)F)C2` the same measures were 98%, 103% and 49%.
For `CC1CN(Cc2ccc(NC(=O)/C=C/c3cnccc3-c3cnn(C4CC4)c3)cc2)C1` the same measures were 97%, 102% and 55%.
`Cn1cc(-c2ccncc2/C=C/C(=O)Nc2ccc3cnccc3c2)cn1`: the inhibition in assay [1] came out at 99%; in assay [2], 96%. In the assay with RPMI-8226, the inhibition at 1 µM was 62%.
